Experimental data taken from ChEMBL document CHEMBL5247609, “Novel nitric oxide-releasing derivatives of pyranocarbazole as antitumor agents: Design, synthesis, biological evaluation, and nitric oxide release studies” (Eur J Med Chem, 2022).
Active and inactive are the calls of the source. The rule behind the calls is not given here.

Legend:
MX1 [1] = assay: Induction of morphological changes in human MX1 cells assessed as decrease in cell number at 0.5 to 2 uM measured after 24 hrs by bright field inverted microscopic analysis; format: functional, cell-based; details: dose 0.5-2 µM
MX1 [2] = assay: Induction of cell cycle arrest in human MX1 cells assessed as decrease in cyclin B1 expression at 0.5 to 2 uM by Western blotting analysis; format: functional, cell-based; details: dose 0.5-2 µM, time 24.0 hrs
MX1 [3] = assay: Inhibition of PI3K/Akt signaling in human MX1 cells assessed as decrease in total Akt expression level incubated for 24 hrs by Western blotting analysis; format: cell-based
MDA-MB-231 [4] = assay: Inhibition of PI3K/Akt signaling in human MDA-MB-231 cells assessed as decrease in phosphorylated Akt expression level incubated for 24 hrs by Western blotting analysis; format: cell-based; details: dose 0.5-5 µM
MX1 [5] = assay: Induction of morphological changes in human MX1 cells at 0.5 to 2 uM measured after 24 hrs by bright field inverted microscopic analysis; format: functional, cell-based; details: dose 0.5-2 µM
MDA-MB-231 [6] = assay: Induction of cell cycle arrest in human MDA-MB-231 cells assessed as decrease in cyclin B1 expression at 0.5 to 2 uM by Western blotting analysis; format: functional, cell-based; details: dose 0.5-2 µM, time 24.0 hrs
MX1 [7] = assay: Induction of cell cycle arrest in human MX1 cells assessed as accumulation of cells at G0/G1 phase at 0.5 to 2 uM measured after 24 hrs by propidium iodide staining based FACS calibur flow cytometeric analysis (reference value: 39.2%); format: functional; details: dose 0.5-2 µM
MDA-MB-231 [8] = assay: Antitumor activity against human MDA-MB-231 cells xenografted in BALBC mouse assessed as reduction of tumor volume at 150 mg/kg, IG administered every 3 days for 21 days relative to control; format: functional; parameters: scale not given: the % may be the effect or the level left; details: time 21 day
HeLa = assay: Antiproliferative activity against human HeLa cells assessed as reduction in cell viability after 96 hrs by MTT assay; format: functional, cell-based
MDA-MB-231 [9] = assay: Induction of apoptosis in human MDA-MB-231 cells assessed as viable cells measured at 5 uM after 48 hrs by FITC-Annexin-V and propidium iodide based flow cytometric analysis (reference value: 94.4% ); format: functional; details: read-out: Activity
[10] = Toxicity in BALBC mouse xenografted with human MDA-MB-231 cells assessed as weight loss at 50 to 150 mg/kg, IG administered every 3 days for 21 days; format: organism-based; details: in vivo, po, 504 h, dose 50-150 mg/kg, time 21 day
MX1 [11] = assay: Induction of cell cycle arrest in human MX1 cells assessed as decrease in accumulation of cells at S phase at 0.5 to 2 uM measured after 24 hrs by propidium iodide staining based FACS calibur flow cytometeric analysis; format: functional; details: dose 0.5-2 µM
[12] = Toxicity in BALBC mouse allografted with mouse EMT6 cells assessed as weight loss at 50 to 150 mg/kg, IG administered every 3 days for 21 days; format: organism-based; details: in vivo, po, 504 h, dose 50-150 mg/kg, time 21 day
MX1 [13] = assay: Induction of apoptosis in human MX1 cells assessed as upregulation of Bax by Western blotting analysis; format: functional, cell-based; details: dose 0.5-2 µM
MDA-MB-231 [14] = assay: Antitumor activity against human MDA-MB-231 cells xenografted in BALBC mouse assessed as inhibition of tumor growth at 150 mg/kg, IG administered every 3 days for 21 days relative to control; format: functional; details: MDA-MB-231, po, 504 h, time 21 day, read-out: TGI
MDA-MB-231 [15] = assay: Induction of apoptosis in human MDA-MB-231 cells assessed as upregulation of Bax by Western blotting analysis; format: functional, cell-based; details: dose 0.5-2 µM
MDA-MB-231 [16] = assay: Induction of apoptosis in human MDA-MB-231 cells assessed as necrotic cells measured at 0.5 uM after 48 hrs by FITC-Annexin-V and propidium iodide based flow cytometric analysis (reference value: 0.253 %); format: functional
MDA-MB-231 [17] = assay: Induction of cell cycle arrest in human MDA-MB-231 cells assessed as accumulation of cells at G0/G1 phase incubated for 24 hrs by propidium iodide staining based FACS calibur flow cytometeric analysis; format: functional; details: dose 0.5-2 µM
MDA-MB-231 [18] = assay: Antitumor activity against human MDA-MB-231 cells xenografted in ig dosed BALBc mouse assessed as inhibition of tumor growth administered every 3 days for 21 days; format: functional, organism-based; details: time 21.0 day
NCI-H460 = assay: Antiproliferative activity against human H460 cells assessed as reduction in cell viability after 96 hrs by MTT assay; format: functional, cell-based; details: NCI-H460, 96 h
MDA-MB-231 [19] = assay: Inhibition of PI3K/Akt signaling in human MDA-MB-231 cells assessed as decrease in phosphorylated S6 expression incubated for 24 hrs by Western blotting analysis; format: cell-based; details: dose 0.5-2 µM
MX1 [20] = assay: Induction of apoptosis in human MX1 cells assessed as late apoptotic cells measured at 0.5 uM after 48 hrs by FITC-Annexin-V and propidium iodide based flow cytometric analysis (reference value: 5.24%); format: functional
MX1 [21] = assay: Induction of apoptosis in human MX1 cells assessed as early apoptotic cells measured at 0.5 uM after 48 hrs by FITC-Annexin-V and propidium iodide based flow cytometric analysis (reference value: 6.30%); format: functional
MDA-MB-231 [22] = assay: Induction of apoptosis in human MDA-MB-231 cells assessed as early apoptotic cells measured at 2 uM after 48 hrs by FITC-Annexin-V and propidium iodide based flow cytometric analysis (reference value: 2.71%); format: functional
MDA-MB-231 [23] = assay: Inhibition of PI3K/Akt signaling in human MDA-MB-231 cells assessed as decrease in total Akt expression level incubated for 24 hrs by Western blotting analysis; format: cell-based
EMT6 = assay: Antitumor activity against mouse EMT6 cells allografted in BALBC mouse assessed as reduction in tumor progression at 150 mg/kg, IG administered every 3 days for 21 days; format: functional, organism-based; details: time 21.0 day
MDA-MB-231 [24] = assay: Induction of apoptosis in human MDA-MB-231 cells assessed as total apoptotic cells measured at 5 uM after 48 hrs by FITC-Annexin-V and propidium iodide based flow cytometric analysis (reference value: 6.2%); format: functional
MDA-MB-231 [25] = assay: Induction of apoptosis in human MDA-MB-231 cells assessed as necrotic cells measured at 5 uM after 48 hrs by FITC-Annexin-V and propidium iodide based flow cytometric analysis (reference value: 0.253 %); format: functional
MX1 [26] = assay: Induction of apoptosis in human MX1 cells assessed as early apoptotic cells measured at 2 uM after 48 hrs by FITC-Annexin-V and propidium iodide based flow cytometric analysis (reference value: 6.30%); format: functional
MX1 [27] = assay: Induction of apoptosis in human MX1 cells assessed as early apoptotic cells measured at 5 uM after 48 hrs by FITC-Annexin-V and propidium iodide based flow cytometric analysis (reference value: 6.30%); format: functional
MDA-MB-231 [28] = assay: Induction of apoptosis in human MDA-MB-231 cells assessed as late apoptotic cells measured at 0.5 uM after 48 hrs by FITC-Annexin-V and propidium iodide based flow cytometric analysis (reference value: 2.68%); format: functional
MDA-MB-231 [29] = assay: Induction of morphological changes in human MDA-MB-231 cells assessed as decrease in cell number at 0.5 to 2 uM measured after 24 hrs by bright field inverted microscopic analysis; format: functional, cell-based; details: dose 0.5-2 µM
MX1 [30] = assay: Induction of apoptosis in human MX1 cells assessed as viable cells measured at 1 uM after 48 hrs by FITC-Annexin-V and propidium iodide based flow cytometric analysis (reference value: 88.4%); format: functional; details: read-out: Activity
MX1 [31] = assay: Induction of apoptosis in human MX1 cells assessed as late apoptotic cells measured at 2 uM after 48 hrs by FITC-Annexin-V and propidium iodide based flow cytometric analysis (reference value: 5.24%); format: functional

Structure (SMILES): CC1(C)C=Cc2c(c(/C=C/C(=O)NCCOc3no[n+]([O-])c3S(=O)(=O)c3ccccc3)cc3c2[nH]c2ccc(C(C)(C)C)cc23)O1
- Activity (MX1 [1]): Active
- Activity (MX1 [2]): Active
- inhibition (MX1 [3]): inactive
- inhibition (MDA-MB-231 [4]): Dose-Dependent Effect
- Activity (MX1 [5]): Active
- Activity (MDA-MB-231 [6]): Active
- Activity (MX1 [7]): 43.1%
- Activity (MDA-MB-231 [8]): 40%
- IC50 (HeLa): 140 nM
- viability at 5 µM (MDA-MB-231 [9]): 47.1%
- Activity [10]: Non-Toxic
- Activity (MX1 [11]): Active
- Activity [12]: Non-Toxic
- Activity (MX1 [13]): Dose-Dependent Effect
- inhibition in vivo at 150 mg/kg (MDA-MB-231 [14]): 53.6%
- Activity (MDA-MB-231 [15]): Dose-Dependent Effect
- Activity (MDA-MB-231 [16]): 0.644%
- Activity (MDA-MB-231 [17]): Dose-Dependent Effect
- Activity (MDA-MB-231 [18]): Dose-Dependent Effect
- IC50 (NCI-H460): 780 nM
- inhibition (MDA-MB-231 [19]): Active
- Activity (MX1 [20]): 5.2%
- Activity (MX1 [21]): 39.8%
- Activity (MDA-MB-231 [22]): 10.8%
- inhibition (MDA-MB-231 [23]): inactive
- Activity (EMT6): Active
- Activity (MDA-MB-231 [24]): 71.2%
- Activity (MDA-MB-231 [25]): 0.867%
- Activity (MX1 [26]): 85.3%
- Activity (MX1 [27]): 57.8%
- Activity (MDA-MB-231 [28]): 3.85%
- Activity (MDA-MB-231 [29]): Active
- viability at 1 µM (MX1 [30]): 43.5%
- Activity (MX1 [31]): 2.83%
